The values below come from patent publication US20140343118A1, “METHODS OF TREATMENT USING ARYLCYCLOPROPYLAMINE COMPOUNDS” (Duke University, priority 2013, published 2014).

The target in one assay is T1, recombinant LSD1 (Homo sapiens, UniProt O60341).
T1 construct: made in house
The assay can be described thus: LSD1 horseradish peroxidase coupled enzyme assay, time-dependent inactivation kinetics. The assay is classed as biochemical. The procedure:
For example, compounds may be assayed for their ability to inhibit the enzymatic activity of recombinant LSD1 utilizing a horseradish peroxidase coupled assay for the detection of hydrogen peroxide formed in the demethylase catalytic cycle.
LSD1 overexpression, purification and horseradish peroxidase coupled enzyme assay were performed as previously described.
Inhibitors were prepared as 100 mM stocks in dimethylsulfoxide (DMSO) before dilution into assay reagents at appropriate concentrations. Progress curves for time-dependent enzyme inactivation were fit to Equation 1
Product=(vi/kobs)*(1−exp^−kobs*t) (1)
to obtain values of kobs as a function of inhibitor concentration, which were then fit to Equation 2 to obtain values of kinact and K1.

The subject of assay [1] is MCF7 cells. The experiment in a line: Cell proliferation assay (total DNA content). The assay is classed as cell-based. Particulars: MCF7, 250 μM every other day for 10 days. How it is done: (§1) After 2 d, the cells were treated with fresh media containing the inhibitors at the concentrations indicated. Every 2 d, for a total of 6 or 10 d, respectively, the cells were treated similarly. […] Data are presented as the mean±SEM for triplicate wells in one representative experiment.

Assay [2] deals with MDA-MB-231 cells. The assay can be described thus: Cell proliferation assay (total DNA content). The assay is classed as cell-based. Particulars: MDA-MB-231, 250 μM every other day for 10 days. How it is done: as §1
Another assay concerns HCC1143 cells. Particulars: HCC1143, 250 μM every other day for 10 days. The procedure:
as §1

The next assay concerns HCC1937 cells. The settings on record: HCC1937, 250 μM every other day for 10 days. The procedure:
as §1

For assay [3], the system named is MCF7 cells. The assay can be described thus: Cell cycle analysis (BrdU/PI flow cytometry). The assay is classed as cell-based. Particulars: MCF7, 250 μM, 24 hours. How it is done:
MCF7 cells were seeded at 400,000 cells per well in 6 well plates in DMEM/F12 (Invitrogen) containing 8% FBS, 1 mM sodium pyruvate and 0.1 mM non-essential amino acids. After 24 h, the cells were treated with fresh media containing the 250 μM inhibitor. After 48 h of treatment, the cells were pulsed for 2 h with BrdU (10 μg mL^−1). The cells were trypsinized and collected using cold IFA buffer (3 mL) (4% charcoal stripped FBS, 150 mM sodium chloride, 10 mM HEPES, pH 7.5). They were washed with PBS, resuspended in 1 mL of PBS and fixed with 70% ethanol. The cells were incubated for 30 min on ice and then stored at −20° C. The cells were washed with PBS containing 0.5% BSA. The pellet was denatured with 2 M hydrochloric acid containing 0.5% BSA. The residual acid was neutralized using 0.1M sodium borate, pH 8.5. The cell pellet was resuspended in dilute anti-BrdU-alexa fluor-488 antibody (Molecular Probes) (PBS+0.5% Tween 20+0.5% BSA+5% antibody). After washing excess away, the cell pellets were resuspended in PI+RNase A (10 μg mL^−1 propidium iodide and 10 μg mL^−1 RNase A in PBS). The cells were vortexed and analyzed using flow cytometry (Accuri C6).
Background: In flow cytometry, cells or beads pass a laser one at a time.

Assay [4] relates to histone H3K4-Me2 and H3K9-Me2 in MCF7 cells. The assay can be described thus: Western blot of global histone dimethylation. The assay is classed as cell-based. Particulars: inhibitors 250 μM for 24 h. The procedure: (§2) MCF7 cells or MDA-MB 231 cells were seeded in six-well plates. Cells were treated after 48 h with inhibitor for 24 h. Whole-cell extracts were isolated using RIPA buffer [50 mM Tris (pH 8.0), 200 mM NaCl, 1.5 mM MgCl2, 1% Nonidet P-40 (NP40), 1 mM EGTA, 10% glycerol, 50 mM NaF, 2 mM Na3VO4 and 1× protease inhibitor mixture]. Crude histones were extracted from the lysate pellet by resuspending in water and precipitating with 25% TCA. The pellets were washed with acetone and then resuspended. Concentration of whole-cell lysate or resuspended histones was determined using Bio-Rad Bradford reagent using BSA for standard curve. For each sample, proteins were resolved by SDS-PAGE and transferred to a PVDF membrane (Biorad).
(§3) H3K4-Me2 was detected using polyclonal rabbit antibody (Millipore 07-030). H3K9-Me2 was detected using a monoclonal mouse antibody (Abcam ab1220). Total H3 was detected using a polyclonal rabbit antibody (Abcam ab1791). LSD1 was detected using a monoclonal rabbit antibody (Millipore 05-939) or polyclonal rabbit antibody (Abcam ab17721). ERα (D12) was detected using monoclonal mouse antibody (Santa Cruz sc-8005). GAPDH was detected using polyclonal goat antibody (Santa Cruz sc-20357). Secondary antibodies were purchased from Bio-Rad.
On the technique in general: Immunoblotting shows a protein as a band on a membrane.

In assay [5] the test system is histone H3K4-Me2 and H3K9-Me2 in MDA-MB-231 cells. The assay can be described thus: Western blot of global histone dimethylation. The assay is classed as cell-based. The settings on record: inhibitors 250 μM for 24 h. How it is done:
as §2, §3

In assay [6] the test system is MCF7 cells. Particulars: MCF7, 24 h, up to 500 μM.
Assay [7] relates to MDA-MB-231 cells. Particulars: MDA-MB-231, 24 h, up to 500 μM.
The target in another assay is T2, MAO B (Homo sapiens, UniProt P27338).
T2 sequence (P27338 1-520): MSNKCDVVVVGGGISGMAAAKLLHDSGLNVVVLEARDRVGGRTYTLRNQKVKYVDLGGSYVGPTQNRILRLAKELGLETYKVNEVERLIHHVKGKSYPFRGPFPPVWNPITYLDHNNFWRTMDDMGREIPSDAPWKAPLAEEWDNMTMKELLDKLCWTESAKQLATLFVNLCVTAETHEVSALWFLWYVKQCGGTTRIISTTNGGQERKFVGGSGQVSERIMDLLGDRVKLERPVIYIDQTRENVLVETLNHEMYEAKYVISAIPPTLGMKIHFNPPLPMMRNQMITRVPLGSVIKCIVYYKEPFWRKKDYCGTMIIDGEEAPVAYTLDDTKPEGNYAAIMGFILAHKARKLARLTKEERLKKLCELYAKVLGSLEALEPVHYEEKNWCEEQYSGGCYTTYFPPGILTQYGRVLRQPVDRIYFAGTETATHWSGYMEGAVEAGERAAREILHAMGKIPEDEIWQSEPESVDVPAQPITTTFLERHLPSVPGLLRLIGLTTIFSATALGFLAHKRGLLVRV
The experiment in a line: Inhibition kinetics of MAO B.

For orientation: kinact means the maximal first-order rate at which the target is inactivated. For `CC(C)(C)c1ccc(Sc2ccc(C3CC3N)cc2)cc1` (stereo not shown) [Compound 1f], at recombinant LSD1 (LSD1 inactivation), the Ki was found to be 540 ± 160 µM and the inactivation rate constant (kinact) is 0.022 ± 0.003 s⁻¹.
One may read the kinact/KI as the maximal inactivation rate divided by the concentration that gives half of it. As to `C#CCNCc1ccccc1` [Compound 2a], the kinact/KI on recombinant LSD1 (LSD1 inactivation) is under 0.6 M⁻¹ s⁻¹.
Regarding `N[C@@H]1C[C@H]1c1ccccc1` (relative stereo) [Compound 2-PCPA, trans-2-Phenylcyclopropylamine], the cell proliferation entry in the assay with MCF7 cells [1], in the assay with MDA-MB-231 cells [2], in the assay on HCC1143 cells and in the assay on HCC1937 cells was “significantly decreased cell proliferation” in each case. Besides, the “cell cycle arrest (accumulation in G1 and G2/M, decrease in S phase)” value with MCF7 cells [3] is “growth arrested”. The results for the “level of global histone H3K4-Me2” value in [4] and in [5] were “increased” and “robust increases”, respectively. The results for the “level of global histone H3K9-Me2” value in [4] and in [5] were “significant changes were not observed” and “robust increases”, respectively. The induction of apoptosis result in the assay on MCF7 cells [6] and with MDA-MB-231 cells [7] was “did not induce apoptosis” throughout.
`NC1CC1c1cccc(OCc2ccccc2)c1` (stereo not shown) [Compound 1e]: on recombinant LSD1 (LSD1 inactivation), the kinact worked out at 0.025 ± 0.005 s⁻¹.
In the case of `NC1CC1c1ccc(Oc2ccccc2)cc1` (stereo not shown) [Compound 1d], the maximal inactivation rate constant (kinact) at MAO B was 0.032 ± 0.002 s⁻¹.
Consider `C#CCNCc1ccc(Oc2ccccc2)cc1` [Compound 2c], for which, at recombinant LSD1 (LSD1 inactivation), the kinact/KI is under 0.3 M⁻¹ s⁻¹.
With `CCOc1ccc(C2CC2N)cc1` (stereo not shown) [Compound 1b], the maximal inactivation rate constant (kinact) at recombinant LSD1 (LSD1 inactivation) turned out to be 0.02 ± 0.002 s⁻¹.
For the molecule `C#CCNCc1ccc(OC(C)C)cc1` [Compound 2b], the kinact/KI at recombinant LSD1 (LSD1 inactivation) is under 0.8 M⁻¹ s⁻¹.
Turning to `C#CCN(C)Cc1ccccc1` [pargyline], the “concentration needed to inhibit LSD1 in vitro” value at recombinant LSD1 is on record as “greater than 5 mM”. Moreover, at recombinant LSD1 (LSD1 inactivation), the second-order inactivation constant (kinact/KI) was under 0.2 M⁻¹ s⁻¹. Moreover, on recombinant LSD1 (concentrations as high as 10 mM, prolonged exposure), the enzymatic activity remaining result is on record as “greater than 70%”.
